Laboratory results published in patent US11884651B1, “7-(4-((4-benzylidene-5-oxo-2-phenyl-4,5-dihydro-1H-imidazol-1-yl)methyl)piperazin-1-yl)-1-cyclopropyl-6-fluoro-4-oxo-1,4-dihydroquinoline-3-carboxylic acid as an anti-inflammatory compound” (KING FAISAL UNIVERSITY, priority 2023, dated 2024).

Key:
[1] = biological target: Bovine Serum Albumin (BSA) (Bos taurus, UniProt P02769); assay: Bovine Serum Albumin Assay (BSA), inhibition of heat-induced protein denaturation (in vitro anti-inflammatory activity); format: biochemical
Method: Bovine Serum Albumin Assay (BSA) In vitro-inflammatory activities of the tested samples were determined using a modified method of the BSA assay reported by Williams et al. BSA solution (0.4%, w/v) was prepared in Tris Buffered Saline. The pH was adjusted to 6.4 with glacial acetic acid. Different dilutions of 20, 40, 60, 80, and 100 pg/mL of the stock solutions of 7-(4((4-benzylidene-5-oxo-2-phenyl-4,5-dihydro-1H-imidazol-1-yl)methyl)piperazin-1-yl)-1-cyclopropyl-6-fluoro-4-oxo-1,4-dihydroquinoline-3-carboxylic acid (4) were added to test tubes containing 1 mL of 0.4%, w/v BSA buffer solution. Both negative (solvent) and positive (aspirin) controls were assayed in a similar manner. The solutions were then heated in a water bath at 72° C. for 10 minutes and cooled for 20 minutes under laboratory conditions. The turbidity of the solutions (level of protein precipitation) was measured at 660 nm in Spectrophotometer (V-770 UV-Visible/NIR Spectrophotometer). The percentage inhibition of precipitation (protein denaturation) was determined relative to the negative control using the following equation: [formula] [formula]

Sequence of Bovine Serum Albumin (BSA) (P02769 25-607): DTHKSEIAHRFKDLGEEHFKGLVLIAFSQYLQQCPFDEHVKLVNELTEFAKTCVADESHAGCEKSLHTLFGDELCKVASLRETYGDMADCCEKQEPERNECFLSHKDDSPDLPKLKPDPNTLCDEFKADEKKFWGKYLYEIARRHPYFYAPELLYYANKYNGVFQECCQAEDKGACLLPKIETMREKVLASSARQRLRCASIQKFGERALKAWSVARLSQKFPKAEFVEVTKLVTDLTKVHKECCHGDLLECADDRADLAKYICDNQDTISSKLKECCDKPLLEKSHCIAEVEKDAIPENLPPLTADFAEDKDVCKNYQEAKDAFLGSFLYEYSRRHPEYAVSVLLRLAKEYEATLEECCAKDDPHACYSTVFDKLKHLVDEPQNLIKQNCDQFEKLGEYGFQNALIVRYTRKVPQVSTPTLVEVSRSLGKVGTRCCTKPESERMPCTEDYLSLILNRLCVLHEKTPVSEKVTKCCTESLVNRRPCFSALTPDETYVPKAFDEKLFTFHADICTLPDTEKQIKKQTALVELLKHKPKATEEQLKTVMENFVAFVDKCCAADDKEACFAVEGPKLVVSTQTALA

Row | in vitro anti-inflammatory activity (result in words) ([1]; BSA assay) | percentage inhibition of precipitation (protein denaturation) ([1]; bovine, 10 min, 100 pg/mL, pH 6.4) [%] | melting point [°C] | percentage inhibition of precipitation (protein denaturation) ([1]; 100 pg/ml (concentration printed for aspirin), 0.4% w/v BSA, pH 6.4, 72° C. for 10 minutes, turbidity at 660 nm, relative to negative control) [%] | SMILES
1 | considerable anti-inflammatory effect | 84.78 | 232 to 234 |  | O=C(O)c1cn(C2CC2)c2cc(N3CCN(CN4C(=O)/C(=C\c5ccccc5)N=C4c4ccccc4)CC3)c(F)cc2c1=O [Compound 4, 7-(4-((4-benzylidene-5-oxo-2-phenyl-4,5-dihydro-1H-imidazol-1-yl)methyl)piperazin-1-yl)-1-cyclopropyl-6-fluoro-4-oxo-1,4-dihydroquinoline-3-carboxylic acid]
2 |  |  |  | 90.75 | CC(=O)Oc1ccccc1C(=O)O [aspirin, reference compound]
